# Values of other authors, collected in patent US20120064152A1, “Analgesic and Anti-Inflammatory Compositions Comprising Domperidone and Methods of Using Same” (THE BOOTS COMPANY, priority 1996, published 2012).
# Read-outs that look alike come from different tables or passages of the source.
# Settings: oral 100 mg sumatriptan
compound,measurement,setting,value
CNS(=O)(=O)Cc1ccc2[nH]cc(CCN(C)C)c2c1 [sumatriptan],effectiveness compared with aspirin 900 mg plus 10 mg metoclopramide,initial attacks,as effective as aspirin 900 mg plus 10 mg metoclopramide
same,effectiveness compared with aspirin 900 mg plus 10 mg metoclopramide,subsequent attacks,more effective
